Laboratory results as given in paper PMC10114980, “Triple targeting of mutant EGFR^L858R/T790M, COX-2, and 15-LOX: design and synthesis of novel quinazolinone tethered phenyl urea derivatives for anti-inflammatory and anticancer evaluation” (Journal of Enzyme Inhibition and Medicinal Chemistry, 2023).

Tests used:
[1] = tested on: LPS-induced NO production in RAW 264.7 cells; test: NO production in LPS-activated RAW 264.7 macrophage cells (DAF-FM diacetate); type: cell-based; settings: LPS-activated RAW 264.7 cells, mean ± SEM, three replicates; for IC50: Mus musculus, RAW264.7
Description: TNF-α and IL-6 production were detected in RAW 264.7 macrophage cell culture supernatants following the induction of inflammation by LPS. Moreover, the probes of oxidative species 2,7-dichlorofluorescein diacetate (DCFH-DA) (Molecular Probes) and NO, 4-amino-5-methylamino-2,7-difluorofluorescein diacetate (DAF-FM diacetate) (Molecular Probes) were used to investigate the antioxidant and NO production inhibitory potential of the test compounds. Briefly, RAW 264.7 cells were cultured in black 96 well plates (200 000 cells/mL, 100 µl/well) for 24 h followed by the incubation with the individual test compounds or the reference drugs at different concentrations (12.5, 25, 50, and 100 µM) for 2 h at 37 °C. LPS was then added at a final concentration of 1 µg/mL for an additional 18 h. The cell culture supernatant was collected from cells treated with the different compounds at 25 µM to measure TNF-α and IL-6 levels (1:10 dilution) using DuoSet ELISA kits (R&D Systems, Minneapolis, MN) following the manufacturer’s instructions. Then, the plates were washed to perform ROS and NO detection assays as detailed in our previous studies[16]^,[27].

NCI-H226 = test: NCI single dose screen, NCI-H226; type: cell-based; settings: Homo sapiens; NCI-H226, non-small cell lung cancer; single dose 10^−5 M; read-out: growth inhibition percentage
Description: (§1) Screening of the anticancer activity of the newly synthesised compounds (6a, 6c, 6d, 6e, 6j, 6l, 6m, 6n, 6o, and 6p) was performed by the US National Cancer Institute (NCI) using 60 different human tumour cell lines in accordance with standard procedures formerly reported.
(§2) In vitro anticancer screening was carried out for the selected compounds at a single dose (10^−5 M) against 60 different human tumour cell lines of nine different cancer cell types: leukaemia, lung, colon, CNS, melanoma, ovarian, renal, prostate, and breast cancers.

OVCAR-4 = test: NCI single dose screen, OVCAR-4; type: cell-based; settings: Homo sapiens; OVCAR-4, ovarian cancer; single dose 10^−5 M; read-out: growth inhibition percentage
Description: as §1, §2

[2] = tested on: 60 NCI cancer cell lines panel; test: NCI 60 cell lines panel single dose screen, whole panel; type: cell-based, human; settings: single dose 10^−5 M; for inhibition at 10 µM: Homo sapiens, 60 cell, read-out: growth inhibition percentages range over the sensitive cell lines; for number of cell lines with anticancer activity out of the 60 NCI cell lines: GI higher than 10%
Description: as §1, §2

| Compound | IC50 [1] [µM] | inhibition at 10 µM (NCI-H226) [%] | inhibition at 10 µM (OVCAR-4) [%] | inhibition at 10 µM [2] [%] | number of cell lines with anticancer activity out of the 60 NCI cell lines [2] | NO IC50 [1] | anticancer activity in the NCI 60 panel (in words) [2] |
| --- | --- | --- | --- | --- | --- | --- | --- |
| COc1ccc(NC(=O)NN2C(=O)c3ccccc3N(C)C2c2ccc(OC)cc2)cc1 (centres unmarked) [Compound 6j, 1-(4-Methoxyphenyl)-3-(2-(4-methoxyphenyl)-1-methyl-4-oxo-1,4-dihydroquinazolin-3(2H)-yl)urea] | 13.5 ± 0.29 | < 10 | < 10 | – | – | – | – |
| CN1c2ccccc2C(=O)N(NC(=O)Nc2ccccc2)C1c1ccccc1 (centres unmarked) [Compound 6c, 1-(1-Methyl-4-oxo-2-phenyl-1,4-dihydroquinazolin-3(2H)-yl)-3-phenylurea] | 1.54 ± 1.02 | < 10 | < 10 | – | – | – | – |
| CN1c2ccccc2C(=O)N(NC(=O)Nc2ccc(F)cc2)C1c1ccccc1 (centres unmarked) [Compound 6m, 1-(4-Fluorophenyl)-3-(1-methyl-4-oxo-2-phenyl-1,4-dihydroquinazolin-3(2H)-yl)urea] | 10.3 ± 0.27 | < 10 | 10.8 | 10.5 to 40.1 | 19 | – | – |
| CC1N(NC(=O)Nc2ccc(F)cc2)C(=O)c2ccccc2N1C (centres unmarked) [Compound 6l, 1–(1,2-Dimethyl-4-oxo-1,4-dihydroquinazolin-3(2H)-yl)-3-(4-fluorophenyl)urea] | 5.24 ± 0.5 | < 10 | < 10 | – | – | – | – |
| CN1c2ccccc2C(=O)N(NC(=O)Nc2ccc(F)cc2)C1c1ccc([N+](=O)[O-])cc1 (centres unmarked) [Compound 6o, 1-(4-Fluorophenyl)-3–(1-methyl-2-(4-nitrophenyl)-4-oxo-1,4-dihydroquinazolin-3(2H)-yl)urea] | 1.97 ± 1.45 | < 10 | 16.4 | 10.7 to 41.3 | 21 | – | – |
| COc1ccc(C2N(NC(=O)Nc3ccc(F)cc3)C(=O)c3ccccc3N2C)cc1 (centres unmarked) [Compound 6p, 1-(4-Fluorophenyl)-3-(2–(4-methoxyphenyl)-1-methyl-4-oxo-1,4-dihydroquinazolin-3(2H)-yl)urea] | 10.84 ± 0.05 | < 10 | < 10 | – | – | – | – |
| CN1c2ccccc2C(=O)N(NC(=O)Nc2ccccc2)C1c1ccc([N+](=O)[O-])cc1 (centres unmarked) [Compound 6e, 1-(1-Methyl-2-(4-nitrophenyl)-4-oxo-1,4-dihydroquinazolin-3(2H)-yl)-3-phenylurea] | > 100 | < 10 | < 10 | – | – | did not show any significant NO inhibitory activity | – |
| CN1c2ccccc2C(=O)N(NC(=O)Nc2ccc(F)cc2)C1c1ccc(F)cc1 (centres unmarked) [Compound 6n, 1-(4-Fluorophenyl)-3-(2–(4-fluorophenyl)-1-methyl-4-oxo-1,4-dihydroquinazolin-3(2H)-yl)urea] | 19.9 ± 0.71 | 21 | 29.7 | 10.1 to 57.1 | 32 | – | – |
| CN1CN(NC(=O)Nc2ccccc2)C(=O)c2ccccc21 [Compound 6a, 1-(1-Methyl-4-oxo-1,4-dihydroquinazolin-3(2H)-yl)-3-phenylurea] | 0.97 ± 1.67 | < 10 | < 10 | – | – | – | did not show any anticancer activities |
| CN1c2ccccc2C(=O)N(NC(=O)Nc2ccccc2)C1c1ccc(F)cc1 (centres unmarked) [Compound 6d, 1-(2-(4-Fluorophenyl)-1-methyl-4-oxo-1,4-dihydroquinazolin-3(2H)-yl)-3-phenylurea] | 4.12 ± 0.65 | < 10 | < 10 | – | – | – | – |
